This is an account of results in patent US20060161007A1, “Oxazole and thiazole combinatorial libraries” (priority 1999, published 2006).

For data set [1], the system named is Vibrio anguillarum. The experiment in a line: growth of Vibrio anguillarum cultures (OD650) after incubation with peptide. The data set is classed as cell-based. As to conditions: for OD650 of V. anguillarum cultures: 28°; for killing of the bacteria: OD of the cultures still increased at different incubation times; for effect on the growth of V. anguillarum cultures: result in words. The protocol: The marin bacterium Vibrio anguillarum, a fish pathogen causing the disease “vibriosis” in marine fish and shellfish were used in this experiment.
Bacteria (V. anguillarum) were grown overnight at 28° C. in Luria-Bertani (LB) 20 medium (the concentration of NaCl is 20 g/L for marine bacteria in LB medium, instead of the usual 10 g/L). The culture was re-inoculated and incubated in LB20 medium at 28° C. (ca. 2hr) to reach the exponential growth phase of the bacteria. The bacterial suspension was then dilute with 0.1×LB20 medium to make the bacterial dilution containing 2×10^3 colony-forming units (cfm)/ml.
At time zero, the bacteria were treated with the peptide in 0.1×LB20 medium. After incubation for 3 hours, 1×LB20 medium was added to the culture, and incubated for 20 hours.

A short description of data set [2]: solubility of building block 3 in solvents. The format is physicochemical. The method, then:
2-(2′-Boc-aminomethyl-oxazole-4′-yl)-thiazole-4-carboxylic acid (37) (0.65 g, 2 mmol) was added in 30 ml of 40% TFA in DCM and stirred for 60 min. The solvent was removed by concentration under reduced pressure. The residue was diluted with 10 ml of water, which was neutralized to pH 7 by adding 1 M sodium hydroxide (aqueous solution), followed by addition of solid sodium carbonate (0.42 g, 4 mmole) and a solution of Fmoc-OSu (1 g, 3 mmole) in 60 ml of THF. After stirring for 2 hours (white solid precipitated), the reaction mixture was concentrated under reduced pressure to remove the THF, and diluted with 30 ml of water. The aqueous solution was washed with DCM (50 ml×3), and acidified to pH 3 by adding 10% potassium hydrogensulfate (aqueous solution). The white solid which formed was collected by filtration. This product was insoluble in DCM, ether, EtOAc, THF, methanol, ethanol, acetonitrile, HFIP, DMF, NMP and water. It was soluble in DMSO or the solutions containing more than 50% DMSO in DMF or NMP. The product was recrystallized in DMSO-water to give a fine white powder (0.69 g). Yield: 77%. RP-HPLC analysis: retention […]=14.18 min (average of two runs). ^1H-NMR (90 MHz, DMSO-d6) δ ppm: 8.74 (s, 1H), 8.38 (s, 1H), 7.89-7.31 (m, 8H), and 4.394.30 (m, 5H). ESI-MS (m/z): 448.2 [M +H]+, (calculated monoisotopic mass 448.10), 470.2 [M+Na]^+, 486.2 [M+K]^+.

Data set [3] has as its system DNA. The experiment in a line: DNA binding activity by capillary zone electrophoresis. The method, then: The DNA binding activity of the tetrapeptide amides in the first library was measured using capillary zone electrophoresis.
[4] abbreviates: 31.2 μM peptide, 9 hr incubation.
[5] abbreviates: 31.2 μM peptide, 20 hr incubation.
[6] abbreviates: 62.5 μM peptide, 9 hr incubation.
Setting [7] is: 62.5 μM peptide, 20 hr incubation.
Where [8] appears, read: 125 μM peptide, 9 hr incubation.
Setting [9] is: 125 μM peptide, 20 hr incubation.
The mark [10] stands for this setting: 250 μM peptide, 9 hr incubation.
[11] abbreviates: 250 μM peptide, 20 hr incubation.
Where [12] appears, read: 500 μM peptide, 9 hr incubation.
Setting [13] is: 500 μM peptide, 20 hr incubation.

Consider `CC(=O)NCc1nc(-c2nc(C(=O)NCC(=O)NCc3nc(C(=O)NCCCN)co3)cs2)co1` [Compound L2-6], for which the “OD650 of V. anguillarum cultures” value turned out to be 0.137 in data set [1] (setting [4]); 0.395 in data set [1] (setting [5]); 0.130 in data set [1] (setting [6]); 0.391 in data set [1] (setting [7]); 0.120 in data set [1] (setting [8]); 0.402 in data set [1] (setting [9]). Besides, the “OD650 of V. anguillarum cultures” value came out at 0.113 in data set [1] (setting [10]), 0.427 in data set [1] (setting [11]), 0.073 in data set [1] (setting [12]) and 0.388 in data set [1] (setting [13]). Also, the “killing of the bacteria” value in data set [1] is recorded as “did not kill the bacteria”. Moreover, the “effect on the growth of V. anguillarum cultures” value (shortened to “effect on the growth”) in data set [1] is “inhibited the growth”.
Regarding `O=C(NCc1nc(-c2nc(C(=O)O)cs2)co1)OCC1c2ccccc2-c2ccccc21` [Compound 3, 2-(2′-Fmoc-aminomethyl-oxazole-4′-yl)-thiazole-4-carboxylic acid], the solubility result in data set [2] (in DCM, ethyl ether, EtOAc, THF, methanol, ethanol, acetonitrile, HFIP, DMF, NMP or water) is “did not dissolve”; in data set [2] (in DCM, ethyl ether, EtOAc, THF, methanol, ethanol, acetonitrile, HFIP, DMF, NMP or water, listed as Compound (3)), “insoluble”; in data set [2] (in DMSO, or solutions containing at least 50% DMSO in DMF or NMP), “could only dissolve”; in data set [2] (in DMSO, or solutions containing at least 50% DMSO in DMF or NMP, listed as Compound (3)), “soluble”.
On to “Microcin B17 fragment 13-23 [Compound 39]”, for which the “OD650 of V. anguillarum cultures” value is on record as 0.111 in data set [1] (setting [4]); 0.419 in data set [1] (setting [5]); 0.082 in data set [1] (setting [6]); 0.297 in data set [1] (setting [7]); 0.051 in data set [1] (setting [8]); 0.279 in data set [1] (setting [9]). For the same molecule, the “OD650 of V. anguillarum cultures” value in data set [1] (setting [10]) was 0.034; in data set [1] (setting [11]), 0.241; in data set [1] (setting [12]), 0.034; in data set [1] (setting [13]) it was 0.244. Moreover, the “killing of the bacteria” value in data set [1] is given as “did not kill the bacteria”. The “effect on the growth” value in data set [1] is “inhibited the growth”.
For the molecule `CC(=O)NCc1nc(-c2nc(C(=O)NCC(=O)NCc3nc(C(=O)NCCCN)cs3)cs2)co1` [Compound L2-3], the “effect on the growth” value in data set [1] is “did not have a detectable effect”.
Turning to “2-(2′-Fmoc-aminomethyl-oxazole-4′-yl)-thiazole-4-carboxylic acid [Compound 3]”, in data set [3], the “Ka(1), stoichiometric equilibrium binding constant near saturation” value turned out to be 20000 M⁻¹.
For “2-(Fmoc-aminomethyl)-oxazole-4-carboxylic acid [Compound 2]”, the “Ka(1), stoichiometric equilibrium binding constant near saturation” value in data set [3] was 24000 M⁻¹.
Consider “2-(Fmoc-aminomethyl)-thiazole-4-carboxylic acid [Compound 1]”, for which, in data set [3], the “Ka(1), stoichiometric equilibrium binding constant near saturation” value worked out at 25000 M⁻¹.
`CC(=O)NCc1nc(-c2nc(C(=O)NCC(=O)NCc3nc(-c4nc(C(=O)NCCCN)cs4)co3)cs2)co1` [Compound L2-9]: the “OD650 of V. anguillarum cultures” value in data set [1] (setting [4]) came to 0.135; in data set [1] (setting [5]) it was 0.417; in data set [1] (setting [6]), 0.135; in data set [1] (setting [7]) it was 0.421; in data set [1] (setting [8]), 0.131; in data set [1] (setting [9]), 0.425. Also, the “OD650 of V. anguillarum cultures” value in data set [1] (setting [10]) was 0.125; in data set [1] (setting [11]), 0.409; in data set [1] (setting [12]) it was 0.075; in data set [1] (setting [13]) it was 0.354. For the same molecule, in data set [1], the “killing of the bacteria” value is listed as “did not kill the bacteria”. Further, in data set [1], the “effect on the growth” value is recorded as “inhibited the growth”.
Consider tachyplesin [reference compound], for which the “OD650 of V. anguillarum cultures” value in data set [1] (6.25 μg/ml peptide, 9 hr incubation) is reported as 0.068; in data set [1] (6.25 μg/ml peptide, 20 hr incubation) it was 0.036; in data set [1] (12.5 μg/ml peptide, 9 hr incubation), 0.035; in data set [1] (12.5 μg/ml peptide, 20 hr incubation) it was 0.035; in data set [1] (25 μg/ml peptide, 9 hr incubation) it was 0.035; in data set [1] (25 μg/ml peptide, 20 hr incubation) it was 0.035. Also, the “OD650 of V. anguillarum cultures” value in data set [1] (50 μg/ml peptide, 9 hr incubation) was found to be 0.039; in data set [1] (50 μg/ml peptide, 20 hr incubation) it was 0.038; in data set [1] (Dilution 5 (31.2 μg/ml) peptide, 9 hr incubation) it was 0.098; in data set [1] (Dilution 5 (31.2 μg/ml) peptide, 20 hr incubation), 0.034.
